Assay results as given in US7585854B2, “Method for treating endometriosis” (Tochigi Institute of Clinical Pathology, priority 2000, dated 2009).
Where a name gives a salt, the structure may show the parent alone.

System: endometriosis model rats
Test: Therapeutic effect in endometriosis model rats (uterine tissue autotransplanted to peritoneum; lesion observed by light and electron microscopy)
Assay type: in vivo, Sprague-Dawley rats (female)
Conditions: oral; for invasion of mast cells compared with Comparative Example 1 (non-treated model rats): 0.04 mg/kg bodyweight per day for 6 days from 24 hours after model preparation, lesion sampled at day 7; for therapy of endometriosis (overall conclusion) / apoptosis of fibroblast cells / proliferation of the interstitial cells: 0.04 mg/kg bodyweight per day for 6 days, day 7; for apoptosis of fibroblast cells / proliferation of the interstitial cells: light and electron microscope
Procedure: Endometriosis model rats were prepared by the method described in Michael W. Vernon et al., FERTILITY AND STERILITY, Vol. 44, No. 5, November 1985. That is, endometriosis model rats were prepared as follows: Sprague-Dawley rats (female) of 8 weeks old were acclimatized for 2 weeks under 12 hours light-dark condition. From each rat, right uterine horn was excised under general anesthesia with sevoflurane and ketamine hydrochloride, and a tissue piece sizing 5 mm×5 mm was prepared therefrom. The tissue piece was subjected to autotransplantation such that the endometrium surface is attached to peritoneum.
Seven days after the preparation of the model rats, at which the model lesion reached its peak, the peritoneum tissue including the graft up to the abdominal muscle was excised to obtain a lesion sample. From the thus obtained samples, light microscope specimens (hematoxylin-eosin staining, toluidine blue staining) and electron microscope specimens (uranium-lead double staining) were prepared, and observations with an light microscope (the magnifications were 4× for hematoxylineosin-stained specimens, and 20× for toluidine blue-stained specimens, respectively), and with an electron microscope were carried out as in Reference Example 1.
Endometriosis model rats were prepared by the same method as in Comparative Example 1. From 24 hours after the preparation of the endometriosis model rats, an antiallergic agent (trademark “Alesion Tablet” produced by Boehringer Ingelheim) containing epinastine hydrochloride as the active component was orally administered to the rats for 6 days at a dose of 0.04 mg/kg bodyweight per day in terms of epinastine hydrochloride. Seven days after the preparation of the model rats, at which the model lesion reached its peak, the peritoneum tissues including the graft up to the abdominal muscle were excised to obtain lesion samples.
The same procedures as in Example 1 were repeated except that an antiallergic agent containing ketotifen fumarate as the active component (trademark “Zaditen” produced by Ciba-Geigy Japan Limited) was administered in place of the antiallergic agent containing epinastine hydrochloride as an active component.
The same procedures as in Example 1 were repeated except that an antiallergic agent containing pranlukast hydrate as the active component (trademark “ONON CAPSULE” produced by ONO PHARMACEUTICAL CO.,LTD.) was administered in place of the antiallergic agent containing epinastine hydrochloride as an active component, and that the administration dose per day was 9 mg/kg in terms of pranlukast hydrate.

| Compound | invasion of mast cells compared with Comparative Example 1 (non-treated model rats) | therapy of endometriosis (overall conclusion) | apoptosis of fibroblast cells | proliferation of the interstitial cells |
| --- | --- | --- | --- | --- |
| NC1=NCC2c3ccccc3Cc3ccccc3N12 (centres unmarked) [epinastine, epinastine hydrochloride] | apparently reduced | effective | observed | prominent inhibition |
| CN1CCC(=C2c3ccccc3CC(=O)c3sccc32)CC1 [ketofetin, ketotifen fumarate] | apparently reduced | effective | observed | prominent inhibition |
